Patent US7345068B2, “Aromatic amino acid derivatives and medicinal compositions” (priority 2002, dated 2008)
Where a name gives a salt, the structure may show the parent alone.

Key:
LAT1 = target: T1, LAT1 (Homo sapiens, UniProt Q01650); assay: LAT1 inhibiting activity: inhibition of 14C-L-leucine uptake in T24 cells; type: cell-based; conditions: 1 μM 14C-Leu, 1-minute uptake
T1 construct: Using human bladder cancer cell strain T24 cells, in which LAT1 only was strongly expressed; endogenous in cells; host or cells: T24 human bladder cancer cells
T1 sequence (Q01650 whole entry): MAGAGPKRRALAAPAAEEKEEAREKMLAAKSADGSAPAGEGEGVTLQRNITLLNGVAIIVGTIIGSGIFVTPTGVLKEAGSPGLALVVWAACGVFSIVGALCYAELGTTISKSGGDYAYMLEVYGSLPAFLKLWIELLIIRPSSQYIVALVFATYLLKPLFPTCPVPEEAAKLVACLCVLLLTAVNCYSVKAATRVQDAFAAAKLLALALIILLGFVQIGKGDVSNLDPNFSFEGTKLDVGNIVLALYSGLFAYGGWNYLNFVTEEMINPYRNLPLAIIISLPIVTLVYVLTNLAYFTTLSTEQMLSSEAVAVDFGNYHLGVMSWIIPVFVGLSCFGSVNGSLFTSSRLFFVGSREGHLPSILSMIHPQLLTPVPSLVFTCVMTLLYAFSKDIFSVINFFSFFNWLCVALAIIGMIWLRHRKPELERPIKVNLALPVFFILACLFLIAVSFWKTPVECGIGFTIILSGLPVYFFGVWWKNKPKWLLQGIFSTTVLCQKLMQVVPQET
T1 sequence (P08195 102-630 partner): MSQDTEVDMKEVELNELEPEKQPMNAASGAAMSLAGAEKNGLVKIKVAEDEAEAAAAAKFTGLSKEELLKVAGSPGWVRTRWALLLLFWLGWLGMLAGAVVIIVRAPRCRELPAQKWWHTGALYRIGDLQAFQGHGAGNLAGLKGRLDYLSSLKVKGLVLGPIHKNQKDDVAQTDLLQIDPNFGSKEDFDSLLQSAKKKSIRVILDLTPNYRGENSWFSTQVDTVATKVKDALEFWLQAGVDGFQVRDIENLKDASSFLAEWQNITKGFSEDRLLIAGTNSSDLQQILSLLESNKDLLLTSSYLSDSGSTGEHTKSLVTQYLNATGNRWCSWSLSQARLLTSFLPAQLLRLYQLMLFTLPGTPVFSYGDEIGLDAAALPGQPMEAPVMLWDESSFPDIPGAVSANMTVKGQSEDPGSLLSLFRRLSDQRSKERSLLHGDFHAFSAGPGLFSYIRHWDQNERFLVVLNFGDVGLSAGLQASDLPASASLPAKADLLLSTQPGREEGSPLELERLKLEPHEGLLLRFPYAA
Protocol: 1) To each of the weighed test compounds, DMSO was added to prepare a 100 mM solution or suspension as a DMSO stock. In an assay, the stock was diluted 1,000 fold with a buffer described below. The final concentration of the test compound was 100 μM and the final concentration of DMSO was 0.1%.
2) The LAT1 inhibiting activity of the test compound was determined in the following manner. Using human bladder cancer cell strain T24 cells, in which LAT1 only was strongly expressed, inhibiting activity of each test compound against “^14C”-L-leucine uptake was determined as the LAT1 inhibiting activity.
T24 cells in a logarithmic growth-phase were transferred to a 24-well plate at 0.8×10^5 cell/well and cultured at 37° C. for 2 days. After the plate was incubated at 37° C. on a water bath for 5 minutes, the fixed cells were washed three times with a Hank's balanced salt solution (HBSS: 25 mM HEPES, 125 mM choline chloride, 5.6 mM glucose, 4.8 mM KCl, 1.2 mM MgSO4, 1.2 mM KH2PO4, 1.3 mM CaCl2, pH 7.4) warmed to 37° C., not containing Na^+, to which 500 μl of HBSS (37° C.) was added. Then, further incubation was carried out for 7 minutes.
After the incubation was finished, a supernatant was replaced with HBSS containing 1 μM ^14C-Leu and 100 μM test compound (37° C.), followed by 1-minute uptake. Then, the cells were washed three times with HBSS of 4° C. The washed cells were added with 500 μl of 0.1 N NaOH to dissolve the cells for 20 minutes. The cell solution was transferred to a vial, to which 3 ml of a scintillator was added to measure the radioactivity with a liquid scintillation counter.
Inhibition % was calculated by the following formula. Inhibition %=100−(radioactivity of the well added with the test compound)/(radioactivity of the well not added with the test compound)×100

| IC50 (LAT1) [nM] | melting point | Compound |
| --- | --- | --- |
| 230 | 202 to 204 °C (dec.) | Cc1c(-c2ccccc2)oc2c(COc3c(Cl)cc(C[C@H](N)C(=O)O)cc3Cl)cccc2c1=O [Example 39] |
| 500 | 205 to 210 °C (dec.) | N[C@@H](Cc1cccc(Oc2ccc3[nH]ccc3c2)c1)C(=O)O [Example 52] |
| 220 | 200 to 204 °C (dec.) | N[C@@H](Cc1cccc(Oc2cccc(-c3cccnc3)c2)c1)C(=O)O [Example 100] |
| 240 | 233 to 236 °C (dec.) | N[C@@H](Cc1cc(Cl)c(OCc2cccc3nc(-c4ccc(F)cc4)oc23)c(Cl)c1)C(=O)O [Example 32] |
| 100 | 210 to 214 °C (dec.) | N[C@@H](Cc1cccc(Oc2ccc3ccccc3c2)c1)C(=O)O [Example 49-2), 3-(2-naphthyloxy)-L-phenylalanine] |
| 130 | 219 to 222 °C (dec.) | CN(C)c1ccc(-c2nc3cccc(COc4c(Cl)cc(C[C@H](N)C(=O)O)cc4Cl)c3o2)cc1 [Example 37] |
| 550 | 226 to 230 °C (dec.) | Nc1c(-c2ccccc2)oc2c(COc3c(Cl)cc(C[C@H](N)C(=O)O)cc3Cl)cccc2c1=O [Example 83] |
| 200 | 218 to 221 °C (dec.) | N[C@@H](Cc1cc(Cl)c(OCc2cccc3c(=O)c(CO)c(-c4ccccc4)oc23)c(Cl)c1)C(=O)O [Example 81] |
| 300 | 209 to 211 °C | N[C@@H](Cc1cc(Cl)c(OCc2cccc3nc(-c4ccc(Cl)cc4)oc23)c(Cl)c1)C(=O)O [Example 30] |
| 330 | 219 to 223 °C (dec.) | N[C@@H](Cc1cc(Cl)c(OCc2cccc3oc(-c4ccccc4)nc23)c(Cl)c1)C(=O)O [Example 38] |
| – | 223 to 228 °C (dec.) | CN(C)c1ccc(-c2cccc(Oc3cccc(C[C@H](N)C(=O)O)c3)c2)cn1 (as salt: hydrochloride) [Example 98] |
| 270 | 183 to 187 °C (dec.) | N[C@@H](Cc1cc(Cl)c(OCc2cccc3nc(-c4ccccc4)[nH]c23)c(Cl)c1)C(=O)O [Example 85] |
| – | 213 to 215 °C (dec.) | N[C@@H](Cc1cc(I)c(OCCCBr)c(I)c1)C(=O)O [Example 1, O-(3-bromopropyl)-3,5-diiodo-L-tyrosine] |

The next lines start with the compound.

| Compound | IC50 (LAT1) [nM] | melting point |
| --- | --- | --- |
| N[C@@H](Cc1cccc(Oc2ccc3cc(O)ccc3c2)c1)C(=O)O [Example 56, 3-[2-(6-hydroxy)naphthyloxy]-L-phenylalanine] | 260 | 210 to 220 °C (dec.) |
| N[C@@H](Cc1cc(Cl)c(OCc2cccc3nc(-c4cccc(O)c4)oc23)c(Cl)c1)C(=O)O [Example 48] | 300 | – |
| N[C@@H](Cc1cccc(OCc2ccc3ccccc3c2)c1)C(=O)O [Example 58, 3-[(2-naphthyl)methoxy]-L-phenylalanine] | 490 | 201 to 204 °C (dec.) |
| CN(C)c1ncc(-c2nc3cccc(COc4c(Cl)cc(C[C@H](N)C(=O)O)cc4Cl)c3o2)cn1 [Example 70] | 290 | 218 to 221 °C (dec.) |
| CN(C)c1ccc(-c2cccc(Oc3cccc(C[C@H](N)C(=O)O)c3)c2)cn1 [Example 98] | 200 | – |
| N[C@@H](Cc1cc(Cl)c(OCc2cccc3nc(Cc4ccccc4)oc23)c(Cl)c1)C(=O)O [Example 63] | 940 | 198 to 200.5 °C (dec.) |
| N[C@@H](Cc1cccc(Oc2cccc(-c3ccccn3)c2)c1)C(=O)O [Example 99] | 520 | 187 to 192 °C (dec.) |
| N[C@@H](Cc1cccc(-c2cccc(-c3ccccc3)c2)c1)C(=O)O [Example 112] | 810 | 199 to 201 °C (dec.) |
| Cc1c(-c2ccccc2)oc2c(CNc3c(Cl)cc(C[C@H](N)C(=O)O)cc3Cl)cccc2c1=O [Example 91] | 100 | 207 to 210 °C (dec.) |
| N[C@@H](Cc1cc(Cl)c(OCc2cccc3nc(-c4ccncc4)oc23)c(Cl)c1)C(=O)O [Example 33] | 150 | 214 to 218 °C (dec.) |
| N[C@@H](Cc1cccc(Oc2cccc(-c3cnc4ccccc4c3)c2)c1)C(=O)O [Example 106] | 830 | 185 to 190 °C (dec.) |
| CN(C)c1ncc(-c2cccc(Oc3cccc(C[C@H](N)C(=O)O)c3)c2)cn1 [Example 108] | 670 | 191 to 194 °C (dec.) |
| COc1ncc(-c2nc3cccc(COc4c(Cl)cc(C[C@H](N)C(=O)O)cc4Cl)c3s2)c(OC)n1 [Example 74] | 950 | 210 to 215 °C (dec.) |
| Cc1cc(C[C@H](N)C(=O)O)cc(C)c1OCc1cccc2nc(-c3ccccc3)oc12 [Example 90] | 110 | 203 to 210 °C (dec.) |
| N[C@@H](Cc1cccc(Oc2cccc(-c3ccc(Cl)cc3)c2)c1)C(=O)O [Example 103] | 60 | 204 to 208 °C (dec.) |
| N[C@@H](Cc1cccc(Oc2cccc(-c3cccc(Cl)c3)c2)c1)C(=O)O [Example 102] | 60 | 193 to 198 °C (dec.) |
| COC(=O)c1c(-c2ccccc2)oc2c(COc3c(Cl)cc(C[C@H](N)C(=O)O)cc3Cl)cccc2c1=O [Example 87] | 230 | – |
| NC(Cc1cc(Cl)c(OCc2cccc3c2OC(c2ccccc2)CN3)c(Cl)c1)C(=O)O (stereo not drawn) [Example 71] | 370 | 199 to 204 °C (dec.) |
| CN(C)c1ccc(-c2nc3cccc(COc4c(Cl)cc(C[C@H](N)C(=O)O)cc4Cl)c3o2)cn1 [Example 65] | 330 | 233 to 236 °C (dec.) |
| N[C@@H](Cc1cc(Cl)c(OCc2cccc3nc(-c4ccco4)oc23)c(Cl)c1)C(=O)O [Example 34] | 290 | 227 to 230 °C (dec.) |
| COC(=O)c1c(-c2ccccc2)oc2c(COc3c(Cl)cc(C[C@H](N)C(=O)O)cc3Cl)cccc2c1=O (as salt: HCl) [Example 87] | – | 222.5 to 224 °C (dec.) |
| N[C@@H](Cc1cc(Cl)c(OCc2cccc3nc4n(c23)Cc2ccccc2-4)c(Cl)c1)C(=O)O [Example 73] | 110 | 200 to 208 °C (dec.) |
| COc1ccc2cc(Oc3cccc(C[C@H](N)C(=O)O)c3)ccc2c1 [Example 55, 3-[2-(6-methoxy)naphthyloxy]-L-phenylalanine] | 290 | 202 to 206 °C (dec.) |
| N[C@@H](Cc1cccc(Oc2cccc(-c3ccncc3)c2)c1)C(=O)O [Example 96] | 840 | 182 to 185 °C (dec.) |
| N[C@@H](Cc1cccc(Oc2cccc(-c3ccccc3)c2)c1)C(=O)O [Example 53] | 120 | 203 to 206 °C (dec.) |
| CN(C)c1ccc(-c2cccc(Oc3cccc(C[C@H](N)C(=O)O)c3)c2)cn1 [Example 97] | 10 | 214 to 218 °C (dec.) |
| N[C@@H](Cc1cccc(Oc2cccc3ccccc23)c1)C(=O)O [Example 54] | 710 | 180 to 186 °C (dec.) |
| N[C@@H](Cc1cc(Cl)c(OCc2cccc3nc(-c4ccc(O)cc4)oc23)c(Cl)c1)C(=O)O [Example 22] | 200 | 239 to 241 °C (dec.) |
| CN(CCO)c1ncc(-c2nc3cccc(COc4c(Cl)cc(C[C@H](N)C(=O)O)cc4Cl)c3o2)cn1 [Example 72] | 360 | 212 to 215 °C (dec.) |
